Tests used:
[1] = brain; cited from earlier work
[2] = in vitro release of dexamethasone acetate from microspheres; format: physicochemical
Method: The microspheres, and compositions comprising those microspheres, of the various embodiments described herein are analyzed using USP methods known in the art to determine, among other things, the pH of the compositions, the in vitro release of API, and the impurities present. […] Without wishing to be bound by theory, it can be reasonably expected that dexamethasone acetate will release continuously over about 84 days in vitro, with about 20% of the drug released in 3 days, 50% in 25 days, and 90% in 60 days. It will be understood that the release profile may be adjusted by one or more of the following, including combinations: increasing or decreasing drug to polymer ratio; increasing or decreasing polymer molecular weight; increasing or decreasing particle size; increasing or decreasing polymer degradation time (by decreasing or increasing glycolic acid content); or increasing or decreasing hydrophilicity of microsphere surface.

[3] = in vitro release in 1% C-TAB buffer at pH 3.5; format: physicochemical
Excerpt: Without wishing to be bound by theory, pharmaceutical compositions of the type described herein are not expected to elicit any significant or appreciable degree of inflammatory response or cause necrosis. Histological examination may reveal the microspheres to be localized and agglomerated within the epidural space at the site of injection with no evidence of the presence of the injection vehicle after about 2 days. Contents of the treated epidural pocket can be recovered by dissection. It can be reasonably expected that dexamethasone acetate will be released continuously over approximately 45 days under in vitro conditions of 1% C-TAB buffer at pH 3.5, with <20% of the drug released in 1 day, 30-60% in 7 days, 60-85% in 28 days and not less than 85% in 45 days, with complete microsphere polymer degradation in about 16 weeks/112 days.

CC(=O)OCC(=O)[C@@]1(O)[C@H](C)C[C@H]2[C@@H]3CCC4=CC(=O)C=C[C@]4(C)[C@@]3(F)[C@@H](O)C[C@@]21C [dexamethasone acetate, 9 alpha-fluoro-11-beta, 17-alpha, 21-trihydroxy-16 alpha-methylpregna-1,4-diene-3,20-dione 21-acetate]
anti-inflammatory effect and tissue water content [1]: anti-inflammatory effect in the brain without reducing tissue water content
period of continuous release [2]: about 84 days
drug released ([2]; in 3 days): about 20%
drug released ([2]; in 25 days): ~50%
drug released ([2]; in 60 days): ~90%
period of continuous release ([3]; 1% C-TAB buffer pH 3.5): approximately 45 days
drug released ([3]; 1% C-TAB buffer pH 3.5, in 1 day): < 20%
drug released ([3]; 1% C-TAB buffer pH 3.5, in 7 days): 30-60%
drug released ([3]; 1% C-TAB buffer pH 3.5, in 28 days): 60-85%
drug released ([3]; 1% C-TAB buffer pH 3.5, in 45 days): not less than 85%
